Data taken from ChEMBL document CHEMBL1201862, “PubChem BioAssay data set” (2004).
The source made the active and inactive calls.

Columns and labels:
[1] = ZM109 Env clade C HIV-1 fusion inhibitors, dose response, HeLa effector, CEM target cells, luciferase, cherry-pick (AID 652058); type: functional, cell-based
[2] = inhibitors of clade B AD8 Env fusion, dose response, cell-based, cherry-pick (AID 652062); type: functional;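 further: luciferase signal from cell-cell fusion driven by HIV-1 clade B AD8 Env; potency is for inhibitors of fusion seen as a drop in luminescence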
Protein skinhead-1 = biological target: T1, Protein skinhead-1 (Caenorhabditis elegans, UniProt P34707); type: functional
T1 sequence (P34707 whole entry): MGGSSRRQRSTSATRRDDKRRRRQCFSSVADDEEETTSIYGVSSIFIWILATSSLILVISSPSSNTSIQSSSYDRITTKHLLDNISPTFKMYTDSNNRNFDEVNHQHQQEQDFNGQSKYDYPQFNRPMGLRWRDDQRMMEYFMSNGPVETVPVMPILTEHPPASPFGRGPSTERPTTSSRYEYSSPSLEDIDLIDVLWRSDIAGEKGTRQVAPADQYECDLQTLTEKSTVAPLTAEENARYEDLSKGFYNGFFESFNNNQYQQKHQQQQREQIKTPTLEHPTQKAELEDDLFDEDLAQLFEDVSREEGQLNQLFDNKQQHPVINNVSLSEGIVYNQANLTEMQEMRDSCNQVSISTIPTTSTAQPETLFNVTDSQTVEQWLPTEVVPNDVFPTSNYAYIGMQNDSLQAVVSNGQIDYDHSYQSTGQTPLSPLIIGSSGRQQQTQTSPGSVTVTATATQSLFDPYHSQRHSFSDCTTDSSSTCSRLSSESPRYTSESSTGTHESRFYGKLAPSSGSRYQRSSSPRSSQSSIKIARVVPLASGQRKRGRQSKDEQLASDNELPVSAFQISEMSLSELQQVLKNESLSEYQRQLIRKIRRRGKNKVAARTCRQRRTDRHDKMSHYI

Cytochrome P450 2C9 = Cytochrome P450 2C9 (Homo sapiens, UniProt P11712)
Sequence of Cytochrome P450 2C9 (P11712 whole entry): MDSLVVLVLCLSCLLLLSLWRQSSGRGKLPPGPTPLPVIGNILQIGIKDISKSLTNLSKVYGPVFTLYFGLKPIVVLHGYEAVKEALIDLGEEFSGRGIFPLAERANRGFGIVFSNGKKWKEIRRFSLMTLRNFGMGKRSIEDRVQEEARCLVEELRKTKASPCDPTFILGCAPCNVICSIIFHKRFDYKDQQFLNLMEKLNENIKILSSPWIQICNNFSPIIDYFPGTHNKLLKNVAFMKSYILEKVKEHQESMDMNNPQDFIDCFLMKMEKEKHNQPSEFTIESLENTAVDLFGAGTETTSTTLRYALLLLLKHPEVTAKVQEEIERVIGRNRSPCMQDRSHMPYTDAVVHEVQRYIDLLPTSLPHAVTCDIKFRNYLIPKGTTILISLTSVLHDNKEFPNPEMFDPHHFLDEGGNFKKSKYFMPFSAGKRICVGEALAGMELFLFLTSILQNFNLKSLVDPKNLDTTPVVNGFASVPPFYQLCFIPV

Structure (SMILES)	IC50 (Protein skinhead-1)	further results
COc1ccc(N2CCn3c2nc2c3c(=O)n(CCCc3ccccc3)c(=O)n2C)c(OC)c1	–	AC50 [1]: 0.572 µM (active); AC50 [2]: 5.71 µM (active)
Cc1cccc(C)c1OCC(=O)Nc1nnc(C2CCCO2)s1 (stereo not given)	> 100 µM (inactive)	–
CC(CCc1ccco1)NC(=O)CSc1cc(=O)n(C)c2ccccc12 (stereo not given)	> 100 µM (inactive)	–
CCN(CCCNC(=O)CC(C(=O)N1CCc2ccccc21)n1ccnc1)c1cccc(C)c1 (stereo not given)	> 100 µM (inactive)	–
O=[N+]([O-])c1ccc(N2CCc3ccccc3C2)cc1	> 100 µM (inactive)	–
Clc1ccc(Cc2nc(-c3cccnc3)no2)cc1	36.4 µM (active)	AC50 (Cytochrome P450 2C9): 28.2 µM (inconclusive)
Cc1cccnc1Nc1nc(-c2ccc(F)cc2)cs1	89.2 µM (inactive)	–
Nc1sccc1C(=O)NCc1ccccc1	> 100 µM (inactive)	–
